Experimental data taken from patent US20210161855A1, “5-LIPOXYGENASE ANTAGONISTS” (INSTITUTO DE MEDICINA MOLECULAR JOÃO LOBO ANTUNES, priority 2017, published 2021).

Columns and labels:
5-LO = biological target: T1, 5-LO (Homo sapiens, UniProt P09917); assay: 5-LO activity in neutrophil homogenates; type: biochemical; set-up: endogenous in cells; host or cells: neutrophils isolated from peripheral blood of healthy adult volunteers; intact or sonicated homogenates; conditions: neutrophil homogenates, with or without 1 mM DTT
T1 sequence (P09917 1-674): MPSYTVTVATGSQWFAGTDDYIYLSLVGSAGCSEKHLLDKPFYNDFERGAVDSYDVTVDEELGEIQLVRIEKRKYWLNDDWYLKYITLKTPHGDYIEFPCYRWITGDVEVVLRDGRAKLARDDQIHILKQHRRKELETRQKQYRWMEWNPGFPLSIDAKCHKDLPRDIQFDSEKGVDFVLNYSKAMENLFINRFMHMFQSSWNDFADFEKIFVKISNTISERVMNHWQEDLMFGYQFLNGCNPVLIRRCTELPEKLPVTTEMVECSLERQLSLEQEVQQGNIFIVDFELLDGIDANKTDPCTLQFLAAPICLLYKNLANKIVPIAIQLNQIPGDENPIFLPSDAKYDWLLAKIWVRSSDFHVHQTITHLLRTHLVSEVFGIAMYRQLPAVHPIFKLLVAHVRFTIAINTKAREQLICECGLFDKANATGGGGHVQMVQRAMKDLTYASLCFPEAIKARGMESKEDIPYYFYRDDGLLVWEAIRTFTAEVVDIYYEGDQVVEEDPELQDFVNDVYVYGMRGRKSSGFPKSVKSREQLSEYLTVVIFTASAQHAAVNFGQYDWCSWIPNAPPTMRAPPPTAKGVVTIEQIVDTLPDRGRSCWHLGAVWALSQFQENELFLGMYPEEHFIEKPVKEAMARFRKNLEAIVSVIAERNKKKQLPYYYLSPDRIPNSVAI
Experimental: Peripheral blood (University Hospital Jena, Germany) was withdrawn from healthy adult volunteers with consent that had not taken any anti-inflammatory drugs during the last 10 days, by venipuncture in heparinized tubes (16 IE heparin/mL blood). The blood was centrifuged at 4000 g for 20 min at 20° C. for preparation of leukocyte concentrates. Leukocyte concentrates were then subjected to dextran sedimentation and centrifugation on lymphocyte separation medium (LSM 1077, PAA, Colbe, Germany). Contaminating erythrocytes of pelleted neutrophils were removed by hypotonic Iysis. Neutrophils were then washed twice in ice-cold PBS and finally resuspended in PBS pH 7.4 containing 1 mg/mL glucose or in PBS pH 7.4 containing 1 mg/mL glucose plus 1 mM CaCl2 (PGC buffer) (purity>96-97%).
For analysis of 5-LO product formation in corresponding homogenates, neutrophils were resuspended in PBS containing 1 mM EDTA for 5 min at 4° C. and sonicated (4×10 s, 4° C.). Homogenates, corresponding to 5×10^6 cells/mL, were incubated with the test compounds or vehicle (0.1% DMSO) with or without 1 mM DTT for 15 min at 4° C., pre-warmed for 30 s at 37° C., and the reaction was started by the addition of 2 mM CaCl2 plus the indicated concentrations of AA (routinely 20 μM). The reaction was stopped after 10 min and the samples were analyzed as described for intact cells above.
Data are expressed as mean±S.E.M. IC50 values were calculated from averaged measurements at 6 different concentrations of the compound by nonlinear regression using GraphPad Prism software (San Diego, Calif.) one site binding competition. Statistical evaluation of the data was performed by one-way ANOVA followed by a Tukey-Kramer post-hoc test for multiple comparisons respectively. A p value<0.05 (*) was considered significant.

5-lipoxygenase (5-LO) = biological target: T2, 5-lipoxygenase (5-LO) (Homo sapiens, UniProt P09917); assay: 5-LO inhibition assay, Method A (Cerep), cell-free functional; type: biochemical; conditions: 150 μM; read-out: 5-LO inhibition at the assayed concentration
T2 sequence (P09917 1-674): T1 sequence (P09917 1-674)
Experimental: Method A: 5-Lipoxygenase (5-LO), 12-lipoxygenase (12-LO) and 15-lipoxygenase-2 (15-LO-2) inhibition assays were performed at Cerep, SA (Celle l'Evescault, France) on a fee-for-service basis (Ref 0772^36, 0883^37 and 0893^38, respectively), as described in Table 1.

TRPM8 = TRPM8 (Homo sapiens, UniProt Q7Z2W7); assay: TRPM8 channel antagonism, functional assay; type: cell-based; conditions: 150 μM
TRPM8, sequence (Q7Z2W7 whole entry, species assumed): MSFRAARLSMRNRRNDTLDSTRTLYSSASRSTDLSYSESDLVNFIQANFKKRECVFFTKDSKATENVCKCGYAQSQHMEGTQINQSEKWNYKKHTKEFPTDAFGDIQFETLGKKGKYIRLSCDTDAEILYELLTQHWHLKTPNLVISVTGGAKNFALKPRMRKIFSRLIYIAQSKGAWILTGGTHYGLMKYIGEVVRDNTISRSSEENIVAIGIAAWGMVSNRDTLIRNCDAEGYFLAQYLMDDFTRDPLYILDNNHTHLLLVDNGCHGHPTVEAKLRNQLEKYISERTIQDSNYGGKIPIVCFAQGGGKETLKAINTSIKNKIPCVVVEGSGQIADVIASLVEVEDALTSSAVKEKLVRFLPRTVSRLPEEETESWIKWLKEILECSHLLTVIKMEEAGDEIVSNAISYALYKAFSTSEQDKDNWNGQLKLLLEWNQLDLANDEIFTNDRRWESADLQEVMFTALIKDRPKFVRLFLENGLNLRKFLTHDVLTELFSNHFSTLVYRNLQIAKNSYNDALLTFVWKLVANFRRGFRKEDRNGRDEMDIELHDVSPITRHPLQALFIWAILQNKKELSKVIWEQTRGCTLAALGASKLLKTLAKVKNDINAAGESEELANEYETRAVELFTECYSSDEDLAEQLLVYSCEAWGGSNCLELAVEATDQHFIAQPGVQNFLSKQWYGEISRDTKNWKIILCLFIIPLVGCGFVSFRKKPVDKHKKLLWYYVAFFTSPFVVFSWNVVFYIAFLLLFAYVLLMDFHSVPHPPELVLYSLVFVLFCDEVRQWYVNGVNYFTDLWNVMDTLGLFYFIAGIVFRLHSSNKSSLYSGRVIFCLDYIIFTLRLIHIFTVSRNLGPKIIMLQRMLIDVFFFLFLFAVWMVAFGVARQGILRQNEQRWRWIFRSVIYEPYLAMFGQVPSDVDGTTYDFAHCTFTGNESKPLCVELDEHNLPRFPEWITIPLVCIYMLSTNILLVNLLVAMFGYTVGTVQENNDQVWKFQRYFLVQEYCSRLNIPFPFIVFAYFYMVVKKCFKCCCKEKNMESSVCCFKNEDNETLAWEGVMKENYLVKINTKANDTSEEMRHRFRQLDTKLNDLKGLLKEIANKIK

TRPV1 = TRPV1 (Homo sapiens, UniProt Q8NER1); assay: TRPV1 channel antagonism, functional assay; type: cell-based; conditions: 150 μM
TRPV1, sequence (Q8NER1 whole entry, species assumed): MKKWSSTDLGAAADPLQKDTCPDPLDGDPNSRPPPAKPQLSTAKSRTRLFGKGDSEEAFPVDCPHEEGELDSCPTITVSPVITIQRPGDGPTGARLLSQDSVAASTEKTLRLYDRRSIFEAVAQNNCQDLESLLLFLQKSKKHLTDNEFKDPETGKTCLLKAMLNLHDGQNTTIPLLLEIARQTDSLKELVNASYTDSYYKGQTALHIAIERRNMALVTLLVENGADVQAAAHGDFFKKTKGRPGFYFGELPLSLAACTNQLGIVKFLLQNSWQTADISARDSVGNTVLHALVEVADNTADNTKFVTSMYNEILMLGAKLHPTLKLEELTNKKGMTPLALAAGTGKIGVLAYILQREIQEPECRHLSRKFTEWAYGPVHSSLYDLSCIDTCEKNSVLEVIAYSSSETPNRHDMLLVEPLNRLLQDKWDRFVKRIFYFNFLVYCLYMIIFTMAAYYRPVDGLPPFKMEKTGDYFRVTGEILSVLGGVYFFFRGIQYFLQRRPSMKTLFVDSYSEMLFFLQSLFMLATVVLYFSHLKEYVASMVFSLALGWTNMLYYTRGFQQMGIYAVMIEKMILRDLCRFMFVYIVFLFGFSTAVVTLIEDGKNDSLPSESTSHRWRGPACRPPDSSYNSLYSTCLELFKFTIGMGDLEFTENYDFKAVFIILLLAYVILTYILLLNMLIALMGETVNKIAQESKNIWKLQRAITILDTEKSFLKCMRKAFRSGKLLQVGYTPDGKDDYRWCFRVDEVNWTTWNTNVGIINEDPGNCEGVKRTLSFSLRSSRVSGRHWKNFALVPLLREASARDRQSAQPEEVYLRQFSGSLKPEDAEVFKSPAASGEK

EP3 = biological target: T3, EP3 (Homo sapiens, UniProt P43115); assay: Prostanoid EP3 receptor antagonism, functional assay; type: cell-based; conditions: 150 μM
T3 sequence (P43115 1-390): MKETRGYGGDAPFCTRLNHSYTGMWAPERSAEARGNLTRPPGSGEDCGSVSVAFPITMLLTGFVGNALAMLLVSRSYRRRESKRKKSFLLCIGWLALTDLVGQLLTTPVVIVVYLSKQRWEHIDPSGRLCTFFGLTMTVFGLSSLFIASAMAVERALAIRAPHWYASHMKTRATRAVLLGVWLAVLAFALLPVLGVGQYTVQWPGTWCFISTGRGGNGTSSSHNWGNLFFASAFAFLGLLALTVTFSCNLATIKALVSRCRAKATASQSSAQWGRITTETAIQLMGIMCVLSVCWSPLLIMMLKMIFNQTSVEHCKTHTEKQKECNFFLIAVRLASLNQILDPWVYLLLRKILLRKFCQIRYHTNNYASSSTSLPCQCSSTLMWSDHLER

EP4 = EP4 (Homo sapiens, UniProt P35408); assay: Prostanoid EP4 receptor antagonism, functional assay; type: cell-based; conditions: 150 μM
EP4, sequence (P35408 whole entry): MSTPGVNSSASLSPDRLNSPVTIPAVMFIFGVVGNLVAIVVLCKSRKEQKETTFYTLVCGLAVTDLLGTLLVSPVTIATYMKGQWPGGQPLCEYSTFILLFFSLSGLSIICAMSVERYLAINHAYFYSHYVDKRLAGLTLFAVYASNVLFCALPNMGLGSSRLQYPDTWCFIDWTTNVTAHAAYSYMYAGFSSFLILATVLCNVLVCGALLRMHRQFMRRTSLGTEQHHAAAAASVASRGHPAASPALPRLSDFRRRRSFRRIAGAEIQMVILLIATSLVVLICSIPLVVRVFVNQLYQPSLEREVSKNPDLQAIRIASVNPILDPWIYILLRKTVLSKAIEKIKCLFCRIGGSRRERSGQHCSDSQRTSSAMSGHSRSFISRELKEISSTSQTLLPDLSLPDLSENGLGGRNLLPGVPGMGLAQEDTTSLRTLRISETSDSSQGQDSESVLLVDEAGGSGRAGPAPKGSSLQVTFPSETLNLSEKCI

Row | SMILES | Dependence of inhibition on DTT (5-LO) | inhibition at 150 µM (5-lipoxygenase (5-LO)) [%] | TRPM8 antagonist effect (TRPM8) [%] | TRPV1 antagonist effect (TRPV1) [%] | EP3 antagonist effect (EP3) [%] | EP4 antagonist effect (EP4) [%]
1 | CC(c1cc2ccccc2s1)N(O)C(N)=O (stereo not drawn) [zileuton, reference compound] | independent of DTT |  |  |  |  | 
2 | CC(C)=CCC1=C(O)C(=O)c2ccccc2C1=O [Compound 2, 2-hydroxy-3-(3′-methyl-2′-butenyl)-1,4-naphthoquinone] |  | 87 | 91 | 65 | 50 | 56
